Counter-ions that a name gives are not always drawn.
What was measured:
[1] = Hydrolysis of the methyl ester to clavulanic acid in pH 7 buffer; assay type: physicochemical
Text: Many esters of clavulanic acid differ from analagous esters of penicillins or cephalosporins in that they show an enhanced tendency to hydrolyze to clavulanic acid under mild conditions. […] Esters which undergo some hydrolysis under mild conditions are included within the formula (IX): [drawing 8] wherein R^1 is a hydrocarbon group of 1- 9 carbon atoms optionally substituted by halogen, lower alkoxy, hydroxyl or optionally salted basic groups of the formula NR^2 R^3 wherein R^2 is a hydrogen atom or a lower alkyl group, R^3 is a hydrogen atom or a lower alkyl group or is attached to R^2 so that NR^2 R^3 is a 5- or 6- membered ring.
The reaction was followed by paper chromatography (bioautographic system). Using the butanol/ethanol/water system to follow the reaction over a period of 2 hours the zone of the methyl ester at Rf 0.79 decreased in size as the zone of clavulanic acid at Rf 0.12 increased.

[2] = system: Staphylococcus aureus (Russell); experiment: Antibacterial synergism, microtitre method (Example 42); assay type: cell-based
[3] = system: Escherichia coli B 11; experiment: as above; assay type: cell-based; settings: B11, Table 5, inoculum 0.5 × 10^-2, read-out: Minimum Inhibitory Concentration, compound alone
[4] = system: Klebsiella aerogenes A; experiment: as above; assay type: cell-based; settings: Table 8, strain A
[5] = system: Enterobacter cloacae; experiment: as above; assay type: cell-based; settings: Table 5, inoculum 0.5 × 10^-2, read-out: Minimum Inhibitory Concentration, compound alone
[6] = system: Klebsiella Aerogenes E 70; experiment: as above; assay type: cell-based; settings: Table 8, strain E 70
[7] = system: Klebsiella Aerogenes 62; experiment: as above; assay type: cell-based; settings: Table 8, strain 62
[8] = system: Staphylococcus aureus (Russell); experiment: Synergism of clavulanic acid methyl ester, M.I.C. (Example 32); assay type: cell-based
[9] = system: Proteus mirabilis C889; experiment: as above; assay type: cell-based
[10] = system: Staphylococcus aureus; experiment: Antibacterial synergism, microtitre method (Example 42); assay type: cell-based; settings: Table 6
[11] = molecular target: T1, β-lactamase of E. coli JT410 (Escherichia coli, UniProt P00811); experiment: standard enzyme inhibitory assay (Example 49); assay type: biochemical; settings: read-out: I50 (converted)
T1 construct: E. coli JT410; endogenous in cells; host or cells: Escherichia coli JT410
T1 sequence (P00811 20-377): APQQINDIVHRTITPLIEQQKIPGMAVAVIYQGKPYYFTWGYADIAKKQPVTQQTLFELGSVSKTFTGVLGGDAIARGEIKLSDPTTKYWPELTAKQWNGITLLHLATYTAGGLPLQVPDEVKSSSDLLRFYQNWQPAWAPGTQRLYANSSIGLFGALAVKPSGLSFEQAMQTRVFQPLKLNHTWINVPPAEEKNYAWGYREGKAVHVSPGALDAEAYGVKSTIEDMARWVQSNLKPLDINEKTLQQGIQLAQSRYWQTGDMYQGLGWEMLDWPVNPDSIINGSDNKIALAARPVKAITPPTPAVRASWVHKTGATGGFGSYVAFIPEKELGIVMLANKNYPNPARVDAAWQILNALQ

In the case of `COC(=O)[C@H]1/C(=C/CO)O[C@@H]2CC(=O)N21` [clavulanic acid methyl ester], the “conversion of the ester to clavulanic acid” value ([1]; 1 mg/ml, 37° C., 0.05M phosphate buffer pH 7, followed over 2 hours) is reported as “Slow conversion” and the “hydrolysis to clavulanic acid” value ([1]; water buffered to pH7) is reported as “slowly hydrolyze”.
In the case of `O=C(Cc1cccs1)N[C@@H]1C(=O)N2C(C(=O)[O-])=C(C[n+]3ccccc3)CS[C@H]12` [cephaloridine], the “Minimum Inhibitory Concentration of cephaloridine with synergist added at 1 μg/ml instead of 5 μg/ml” value [2] is reported as “Same value”.
For `CC1(C)S[C@@H]2[C@H](NC(=O)[C@H](N)c3ccccc3)C(=O)N2[C@H]1C(=O)O` [ampicillin], the MIC [3] was > 500 µg/mL, the “MIC of Ampicillin + 5 μg/ml of Benzyl Ester of clavulanic acid” value (“MIC … of Benzyl Ester of clavulanic acid” for short) [4] was 1.9 µg/mL and the “MIC of Ampicillin + 5 μg/ml of Methyl Ester of clavulanic acid” value (“MIC … of Methyl Ester of clavulanic acid” for short) [4] was 1.9 µg/mL. For the same compound, the MIC [5] was 250 µg/mL, the “MIC … of Benzyl Ester of clavulanic acid” value [6] was 3.9 µg/mL and the “MIC … of Methyl Ester of clavulanic acid” value [6] was 3.9 µg/mL. For the same compound, the “MIC … of Benzyl Ester of clavulanic acid” value [7] was 3.9 µg/mL, the “MIC … of Methyl Ester of clavulanic acid” value [7] was 3.9 µg/mL and the “M.I.C. of antibiotic in the presence of 1.0 μg/ml. clavulanic acid methyl ester” value [8] was < 0.4 µg/mL. The “M.I.C. of ampicillin in the presence of 5 μg/ml. clavulanic acid methyl ester” value [9] was 31 µg/mL.
For `O=C(O)[C@H]1/C(=C/CO)O[C@@H]2CC(=O)N21` [clavulanic acid sodium salt, 3-(β-hydroxyethylidine)-7-oxo-4-oxa-1-azabicyclo [3,2,0]heptane-2-carboxylic acid sodium salt], the “Minimum Inhibitory Concentration, compound alone” value ([2]; Table 6) was 15 µg/mL and the “Minimum Inhibitory Concentration, compound alone” value [10] was 62 µg/mL.
Work on `O=C(COc1ccccc1)OC/C=C1\O[C@@H]2CC(=O)N2[C@H]1C(=O)OCc1ccccc1` [benzyl phenoxyacetylclavulanate, Benzyl Phenoxyacetylclavulanate] yielded an IC50 [11] of 3.54 µM.

Reference: patent US4140764A, “β-Lactamase inhibitors and process for their preparation” (priority 1975, dated 1979)
